Assays:
wild-type nematodes = experiment: Lifespan of C. elegans; type: in vivo; conditions: FIG. 8
Experimental: It was previously shown that several interventions that improve age-associated phenotypes also modulate lifespan (Ayyadevara et al. (2017) Antioxid Redox Signal. 27(17): 1383-1396; Ayyadevara et al. (2005) Aging Cell. 4(5): 257-271). The lifespan was assessed in C. elegans, either mock-treated or exposed to TDZD analogues. PNR-962 and BSK-179 extended the lifespan of wild-type nematodes to an identical degree, increasing the mean by roughly 25-30% (P<0.001; FIG. 8).
To obtain synchronized eggs for lifespan studies, worms were maintained for 2 generations, free of contamination and starvation. Healthy, well-fed adult worms from the 2nd generation were then lysed, and eggs placed on plates with appropriate doses of TDZD analogue PNR962, or DMSO vehicle alone (for a final concentration of 0.02% v/v DMSO). At the L4 larval stage, worms were transferred daily to fresh plates for 7 days, and thereafter on alternate days until all the worms are dead. C. elegans that moved spontaneously or responded to gentle prodding were scored as alive. For the mortality computation, worms that were lost for reasons other than natural death were censored. The methods described were adopted from previously described experimental procedures (Ayyadevara, et al. (2016) PIP3-binding proteins promote age-dependent protein aggregation and limit survival in C. elegans. Oncotarget, 7(31): 48870-48886; Bharill, et al. (2013) Extreme Depletion of PIP3 Accompanies the Increased Life Span and Stress Tolerance of PI3K-null C. elegans Mutants. Frontiers in Genetics, 4).

C. elegans = conditions: in vivo; cited from earlier work
SH-SY5Y-APPSw cells = experiment: Thioflavin-T staining of amyloid-like aggregates in SH-SY5Y-APPSw cells; type: cell-based, human
Experimental: (§1) Several TDZD-conjugated drugs (putative GSK-3 inhibitors) were evaluated for their ability to reduce accumulation of protein aggregates, and for protection against aggregation-associated end-points in the following model systems: (i.) SH-SY5Y-APPSw, a neuroblastoma cell line expressing the Swedish mutation of Amyloid Precursor Protein (APPSw), and thus predisposed to form β-amyloid deposits; (ii.) C. elegans strain CL4176, a model of Alzheimer-like amyloidopathy that can be induced to express human Aβ1-42 in muscle, or may express it at a lower level without induction; (iii.) C. elegans strain AM141, a model of Huntington-like polyglutamine aggregation that constitutively expresses Q40::YFP (a tract of 40 glutamines fused in-frame to yellow fluorescent protein) in muscle cells and forms aggregates progressively with adult aging. The TDZD analog PNR-962 (a putative GSK-3 inhibitor) and other related compounds (not shown) were protective in all aggregation assays.
First, the effects of TDZD analogues were tested on the human neuroblastoma cell line SH-SY5Y-APPSw, a model of Alzheimer-like amyloid aggregation expressing the “Sw” mutant form of Amyloid Precursor Protein, APP. These drugs all produced significant reductions in amyloid-like aggregates, by 30-50% as quantified by thioflavin-T staining intensity (data for PNR-962 are shown in FIG. 4). Modified TDZD-8 analogues PNR-962 and BSK-179 are more anti-aggregative than TDZD-8, lowering total amyloid-staining intensity by a further 14% (data not shown).
Following previously described experimental procedures (Liu, et al. (2005). S100B-induced microglial and neuronal IL-1 expression is mediated by cell type-specific transcription factors. Journal of Neurochemistry. 92(3): 546-553), SH-SY5Y-APPSw neuronal cells expressing an aggregation-prone double mutant of amyloid precursor protein (APPSw) were cultured in DMEM plus 10% (v/v) fetal bovine serum (FBS) at 37° C. Cells were suspended in trypsin/EDTA and rinsed in PBS prior to re-plating or harvesting. […] Human neuroblastoma cells were treated with PNR962, either simultaneous with sAPPα or beginning 1 h prior to sAPPα addition (pre-treatment) in order to ascertain the protective benefits of PNR962 on protein aggregation in human neuroblastoma cell lines. A similar experimental procedure was followed to examine the effect of treatment with these analogs on non-neuronal human cells, exposing human embryonic kidney cells (HEK) that express tau-like aggregates (found in AD-associated diseases) to 0.001, 0.01, and 1-μM doses of TDZD-8 and its analogues.
To observe the protective effects of the novel TDZD analogs on protein aggregation in SY5Y-APPSw cells, using DMEM medium containing 10% fetal calf serum in […], cells were cultured at 37′C for 26 hrs allowing cells to approximately double in number. After 48 h of cell incubation in the presence of specified concentrations of drug or vehicle, cells were fixed 15 min in formaldehyde (4% v/v), washed, and stained 20 min at ˜22° C. in a dark container with 0.1% w/v Thioflavin T mixed with DAPI (1 μg/ml; Life Technologies, Grand Island, N.Y., USA). […] The intensity of aggregate/thioflavin-T fluorescence per field was quantified via an Image J plug-in developed in-house, and normalized to the number of DAPI^+ nuclei counted per field, to obtain an average intensity of aggregates per cell for each treatment.

C. elegans strain AM141 = experiment: Q40::YFP aggregates in C. elegans strain AM141; type: in vivo
Experimental: as §1
Fresh agar plates supporting bacterial lawns, which serve as food for C. elegans, were prepared at least 1 day ahead of use. C. elegans AM141 (forming Q40::YFP aggregates in muscle, progressively in early adulthood) were placed on these 100-mm plates. Day-4 adult worms were lysed with alkaline hypochlorite solution to obtain eggs from worms, a procedure that permits synchronization of worms in a cohort. Eggs were placed on plates spotted with different concentrations of TDZD analogues after allowing the compounds to be evenly distributed on the plates (˜1 hour after adding drugs to plates). Vehicle-only (DMSO) controls are included in each experiment, as a baseline for drug effects in experimental groups. Young-adult AM141 (day-3 adults) were transferred on alternate days onto fresh plates that contained the same doses of compounds, with fresh E. coli to prevent starvation of worms. Equal samples (n=25) were randomly picked from experimental groups and control group for microscopic imaging. Using an in-house plugin for ImageJ software (NIH), several images of AM141 were processed for aggregate count per worm. The fluorescence intensity of each aggregate (indicating the size/content of protein aggregates) was also measured. Each drug treatment was repeated multiple times to validate the results.

For CC(=O)Oc1ccccc1C(=O)O [aspirin, acetylsalicylic acid, reference compound], the lifespan (wild-type nematodes) is given as “increased” and the “extension of nematode lifespan” value (C. elegans) is given as 22%.
In the case of CC(=O)Oc1ccccc1C(=O)NCc1ccc(Cn2c(=O)sn(CCCl)c2=O)cc1 [BSK-179], the “further lowering of total amyloid-staining intensity relative to TDZD-8” value (SH-SY5Y-APPSw cells; data not shown) was 14%, the “amyloid accumulation (thioflavin T stained foci)” value (SH-SY5Y-APPSw cells; treated for 2 days (FIG. 9)) was “reduces amyloid accumulation” and the “number of aggregation foci” value (C. elegans strain AM141; C. elegans model of Huntington's Disease (FIG. 7)) was “decreases”. The “reduction of total intensity of Q40::YFP aggregates” value (C. elegans strain AM141; FIG. 7) was over 2 fold and the lifespan (wild-type nematodes) was “increased”.
